Source: patent US20090062214A1, “Left-Side Glucose Lipid a Analogue” (priority 2004, published 2009)
Where two headings read alike, the source gives them in different places.

Experiments:
[1] = tested on: TNFα production in mice; assay: Test for inhibitory activity against TNFα production in mice (in vivo); design: species or system C3H/HeN mice; conditions: GalN.LPS, tail vein injection, plasma TNFα after an hour
Protocol: This test was performed according to the method by Y. Endo et al. (British Journal of Pharmacology 128, 5-12 (1999)).
(§1) A group of five C3H/HeN mice (male, 7-week old) known to be highly sensitive to lipopolysaccharide (LPS) was used. Galactosamine (GalN, 1 g/5 mL) and LPS (0.05 mg/5 mL) were each dissolved in normal saline, and they were mixed in equal amounts to prepare a GalN.LPS solution. The prepared GalN.LPS solution was injected into the tail vein in a dose of 10 mL/kg. The test compound was dissolved in a 0.1% aqueous triethylamine solution and the mixture was injected into the tail vein in a dose of 10 mL/kg substantially simultaneously with the injection of the GalN.LPS solution. […] The amount of TNFα produced in the plasma was measured using a commercially available TNFα ELISA kit. The inhibitory activity against TNFα production of the test compound was calculated as an inhibition rate against TNFα produced in response to the GalN.LPS injection. A regression line was obtained from the inhibition rates and the doses for the mice. The ID50 value (a dose at which the inhibition rate is 50%) was calculated from the regression line.

[2] = tested on: TNFα production in human whole blood; assay: Test for inhibition against TNFα production in human whole blood (in vitro); assay type: cell-based
Protocol: This test was performed according to the method by Hartman et al. (D. A. Hartman, S. J. Ochalski and R. P. Carlson; The effects of antiinflammatory and antiallergic drugs on cytokine release after stimulation of human whole blood by lipopolysaccharide and zymosan A: Inflamm. Res., 44, 269 (1995)).
Peripheral blood was obtained from a healthy volunteer in the presence of heparin. 360 μL of whole blood was added to a 96-well block to which 20 μL of a dimethyl sulfoxide solution of the analyte compound was previously added. 20 μL of lipopolysaccharide (LPS) (derived from E. coli 026:B6 available from SIGMA Inc.) (final concentration: 10 ng/mL) was further added thereto as a stimulant, and the mixture was sufficiently mixed and incubated under conditions of 37° C. and 5% CO2 for 6 hours. After completion of the incubation, the mixture was cooled to 4° C. to discontinue the reaction, and the mixture was immediately centrifuged at 2000 rpm for 15 minutes. The supernatant plasma was then separated and collected. The TNFα produced and released in the plasma was measured by an enzyme-linked immunosorbent assay (ELISA) kit (made by Biosource International). The inhibition rate was determined from the amount of cytokine produced in the presence and in the absence of the analyte compound. IC50 values were calculated from the average of the inhibition rates by the least-square method. For comparison, an IC50 value was calculated in the same manner as in the case of the test compound, using a compound described in U.S. Pat. No. 5,935,938 as a comparative compound. The structural formula of the comparative compound is shown.
This test was performed in the same manner as in Test Example 1. The same comparative compound as in Test Example 1 was used.

[3] = tested on: mouse fatal state after GalN.LPS injection; assay: Survival test for mouse fatal state (in vivo); design: species or system C3H/HeN mice; conditions: tail vein
Protocol: as §1
This test was performed according to the method by H. Takada (The Journal of Infectious Diseases 162, 428-434 (1990)).
Whether mice were alive or not was observed 72 hours after injection of a GalN.LPS solution, and the survival rate was calculated. The strain, age in week and gender of the mice used, the method of preparing the GalN.LPS solution and the compound solution administered, the administration route, the timing and the like were the same as in Test Example 3. A group of 8 mice was used in the test.

[4] = human whole blood, LPS 10 ng/mL, 6 hours, ELISA, Test Example 1, Table 1, read-out: IC50 (nM), inhibition of TNFα production

CCCCCC/C=C\CCCCCCCCCC(=O)O[C@H]1[C@H](OC[C@H]2O[C@H](OP(=O)(O)O)[C@H](NC(=O)CC(=O)CCCCCCCCCCC)[C@@H](OCCCCCCCCCC)[C@@H]2O)O[C@H](COC)[C@@H](OP(=O)(O)O)[C@@H]1OCC[C@@H](CCCCCCC)OC [Compound 1, Phosphono 3-O-decyl-2-deoxy-6-O-{3-O-[(R)-3-methoxydecyl]-6-O-methyl-2-O-[(Z)-11-octadecenoyl]-4-O-phosphono-β-D-glucopyranosyl}-2-(3-oxotetradecanoylamino)-α-D-glucopyranoside]
ID50 (mg/kg), inhibition of TNFα production ([1]; Table 4): 0.45 mg/kg
IC50 [2, 4]: 0.49 nM

CCCCCC/C=C\CCCCCCCCCC(=O)O[C@H]1[C@H](OC[C@H]2O[C@H](OP(=O)(O)O)[C@H](OC(=O)CC(=O)CCCCCCCCCCC)[C@@H](OCCCCCCCCCC)[C@@H]2O)O[C@H](COC)[C@@H](OP(=O)(O)O)[C@@H]1OCC[C@@H](CCCCCCC)OC [Compound 8, phosphono 3-O-decyl-6-O-{3-O-[(R)-3-methoxydecyl]-6-O-methyl-2-O-[(Z)-11-octadecenoyl]-4-O-phosphono-β-D-glucopyranosyl}-2-O-(3-oxotetradecanoyl)-α-D-glucopyranoside]
ID50 (mg/kg), inhibition of TNFα production ([1]; Table 5): 0.55 mg/kg
Survival rate (%) of mice after 72 hours ([3]; dose 0.3 mg/kg, Table 8): 50%
Survival rate (%) of mice after 72 hours ([3]; dose 1 mg/kg, Table 8): 75%
Survival rate (%) of mice after 72 hours ([3]; dose 3 mg/kg, Table 8): 100%
IC50 ([2]; human whole blood, LPS 10 ng/mL, 6 hours, ELISA, Test Example 2, Table 2, read-out: IC50 (nM), inhibition of TNFα production): 0.06 nM

CCCCCC/C=C\CCCCCCCCCC(=O)O[C@H]1[C@H](OC[C@H]2O[C@H](OP(=O)(O)O)[C@H](NC(=O)CC(=O)CCCCCCCCCCC)[C@@H](OCCCCCCCCCC)[C@@H]2O)O[C@H](CO)[C@@H](OP(=O)(O)O)[C@@H]1OCC[C@@H](CCCCCCC)OC [Compound 3, Phosphono 3-O-decyl-2-deoxy-6-O-{3-O-[(R)-3-methoxydecyl]-2-O-[(Z)-11-octadecenoyl]-4-O-phosphono-β-D-glucopyranosyl}-2-(3-oxotetradecanoylamino)-α-D-glucopyranoside]
ID50 (mg/kg), inhibition of TNFα production ([1]; Table 4): 0.96 mg/kg
Survival rate (%) of mice after 72 hours ([3]; dose 0.3 mg/kg, Table 7): 50%
Survival rate (%) of mice after 72 hours ([3]; dose 1 mg/kg, Table 7): 100%
Survival rate (%) of mice after 72 hours ([3]; dose 3 mg/kg, Table 7): 100%
IC50 [2, 4]: 0.65 nM

CCCCCC/C=C\CCCCCCCCCC(=O)O[C@H]1[C@H](OC[C@H]2O[C@H](OP(=O)(O)O)[C@H](OC(=O)CC(=O)CCCCCCCCCCC)[C@@H](OCCCCCCCCCC)[C@@H]2O)O[C@H](CO)[C@@H](OP(=O)(O)O)[C@@H]1OCC[C@@H](CCCCCCC)OC [Compound 9, Phosphono 3-O-decyl-6-O-{3-O-[(R)-3-methoxydecyl]-2-O-[(Z)-11-octadecenoyl]-4-O-phosphono-β-D-glucopyranosyl}-2-O-(3-oxotetradecanoyl)-α-D-glucopyranoside]
ID50 (mg/kg), inhibition of TNFα production ([1]; Table 6): <0.2 mg/kg
Survival rate (%) of mice after 72 hours ([3]; dose 0.3 mg/kg, Table 9): 13%
Survival rate (%) of mice after 72 hours ([3]; dose 1 mg/kg, Table 9): 38%
Survival rate (%) of mice after 72 hours ([3]; dose 3 mg/kg, Table 9): 100%
IC50 ([2]; human whole blood, LPS 10 ng/mL, 6 hours, ELISA, Test Example 2, Table 3, read-out: IC50 (nM), inhibition of TNFα production): 0.83 nM

CCCCCC/C=C\CCCCCCCCCCO[C@H]1[C@H](OC[C@H]2O[C@H](OP(=O)(O)O)[C@H](NC(=O)CC(=O)CCCCCCCCCCC)[C@@H](OCCCCCCCCCC)[C@@H]2O)O[C@H](COC)[C@@H](OP(=O)(O)O)[C@@H]1OCC[C@@H](CCCCCCC)OC [Compound 2, Phosphono 3-O-decyl-2-deoxy-6-O-{3-O-[(R)-3-methoxydecyl]-6-O-methyl-2-O-[(Z)-11-octadecenyl]-4-O-phosphono-β-D-glucopyranosyl}-2-(3-oxotetradecanoylamino)-α-D-glucopyranoside]
ID50 (mg/kg), inhibition of TNFα production ([1]; Table 4): <0.2 mg/kg
Survival rate (%) of mice after 72 hours ([3]; dose 0.3 mg/kg, Table 7): 38%
Survival rate (%) of mice after 72 hours ([3]; dose 1 mg/kg, Table 7): 75%
Survival rate (%) of mice after 72 hours ([3]; dose 3 mg/kg, Table 7): 100%
IC50 [2, 4]: 0.51 nM

CCCCCC/C=C\CCCCCCCCCC(=O)N[C@H]1[C@H](OC[C@H]2O[C@H](OP(=O)(O)O)[C@H](NC(=O)CC(=O)CCCCCCCCCCC)[C@@H](OCCCCCCCCCC)[C@@H]2O)O[C@H](COC)[C@@H](OP(=O)(O)O)[C@@H]1OCC[C@@H](CCCCCCC)OC [Comparative Compound, reference compound]
ID50 (mg/kg), inhibition of TNFα production ([1]; Table 4): 2.12 mg/kg
ID50 (mg/kg), inhibition of TNFα production ([1]; Table 5): 3.28 mg/kg
ID50 (mg/kg), inhibition of TNFα production ([1]; Table 6): 1.82 mg/kg
Survival rate (%) of mice after 72 hours ([3]; dose 0.3 mg/kg, Table 7): 25%
Survival rate (%) of mice after 72 hours ([3]; dose 0.3 mg/kg, Table 8): 50%
Survival rate (%) of mice after 72 hours ([3]; dose 0.3 mg/kg, Table 9): 13%
Survival rate (%) of mice after 72 hours ([3]; dose 1 mg/kg, Table 7): 63%
Survival rate (%) of mice after 72 hours ([3]; dose 1 mg/kg, Table 8): 75%
Survival rate (%) of mice after 72 hours ([3]; dose 1 mg/kg, Table 9): 0%
Survival rate (%) of mice after 72 hours ([3]; dose 3 mg/kg, Table 7): 100%
Survival rate (%) of mice after 72 hours ([3]; dose 3 mg/kg, Table 8): 50%
Survival rate (%) of mice after 72 hours ([3]; dose 3 mg/kg, Table 9): 25%
IC50 ([2]; Homo sapiens, 6 h, read-out: IC50 (nM), inhibition of TNFα production, human whole blood, LPS 10 ng/mL, 6 hours, ELISA, Test Example 1, Table 1): 0.97 nM
IC50 ([2]; Homo sapiens, 6 h, read-out: IC50 (nM), inhibition of TNFα production, human whole blood, LPS 10 ng/mL, 6 hours, ELISA, Test Example 2, Table 2): 2.94 nM
IC50 ([2]; Homo sapiens, 6 h, read-out: IC50 (nM), inhibition of TNFα production, human whole blood, LPS 10 ng/mL, 6 hours, ELISA, Test Example 2, Table 3): 8.24 nM
